Source: patent US20050064524A1, “Population of cells utilizable for substance detection and methods and devices using same” (priority 2003, published 2005)

How the values were obtained:
[1] = test system: U937 cells; experiment: Specificity of ROS probe DCFH-DA towards hydrogen peroxide and NO donor in labeled cells; type: cell-based; settings: FIGS. 22a-b
Protocol: The pro-monocyte U937 cell line was used as cell culture model. Hydrogen peroxide was used as a source of ROS. Probe loading of cells was measured in bulk and at individual cell level. Probe concentration, loading time and cell washing were determined for the different ROS probes. The kinetics of ROS generation was measured in real time by monitoring sequentially the same individual cells. Photo toxicity induced by repeated excitations was checked. FIGS. 12-17, 18-19 and 20-21a-b show the ability of dihydrorhodamine 123 (DHR), dichlorodihydrofluorescein diacetate (DCFH-DA) and dihydroethidium (DHE), respectively, to detect ROS formation in U937 cells treated with hydrogen peroxide.
(§1) The specificity of DCFH-DA and DAF-2DA towards ROS and […] respectively, was tested.

[2] = test system: U937 cells; experiment: Intracellular NO measurement with DAF-2DA probe in labeled cells; type: cell-based; settings: for signal of cells labeled with DAF-2DA (NO probe): FIGS. 22a-b
Protocol: Fluorescent microscopy and imaging system—Olympus motorized upright epi-fluorescence BX51 microscope, equipped with motorized polarization filters for fluorescence polarization measurements was used. Cells were illuminated by a Mercury light source. The emitted fluorescence was imaged by CoolSNAP HQ monochrome CCD camera, or DVC-1312 (DVC Company, West Austin, Tex., USA) color camera. Digital image analysis of cellular fluorescence was performed by Image Pro plus software (Media Cybernetics. Inc. Silver Spring, Md.,USA).
Quantitative measurements of intracellular NO concentration in individual U937 cells were effected in response to incubation in the presence of the Diethylene triamine NONOate ([…]) donor (0.1-1 mM). The loading of cells with probe was measured in bulk at the individual cell level. Probe concentration loading time and cell washing were determined. The kinetic of NO generation was measured in real time by sequentially monitoring the same individual cells. Photo-toxicity induced by repeated excitations was checked and subtracted. Time response of NO generation in the presence or absence of DETA/NO donor (0.5 mM) in U937 cells labeled with DAF-2DA (10 μM, 15 min) is shown in FIG. 3. […] Quantitative measurements of intracellular NO levels in individual living cells labeled with DAF-2DA and treated with DETA/NO are shown in FIGS. 7a-b and 8a-b.
as §1

[3] = test system: individual live cell; settings: hydrogen peroxide stimulus, FIG. 27
Protocol: Measurement of intracellular ROS in live cells—The measurement of intracellular reactive oxygen species (ROS) levels was performed using the DHR123 (1-10 μM), DCFDA(1 μM) or DHE (2 μM) probes.
For probe loading, 100 μl of cells at a concentration of 1.52×10^6 cells/mL in PBS or in serum free media without phenol red were incubated in the presence of the various probes for 15 min at 37° C. and 5% CO2, and then washed twice in PBS and thereafter exposed to either LPC (10-20 μM), MTX (50 nM) or H2O2 (10-500 μM).

SMILES | signal of cells labeled with DCFH-DA (ROS probe) [1] | intracellular NO generation in U937 cells in response to donor ([2]; U937 cells labeled with DAF-2DA (10 μM, 15 min), donor 0.1-1 mM) | signal of cells labeled with DAF-2DA (NO probe) [2] | temporal relationship between ROS generation (DHR) and onset of changes in mitochondrial membrane potential (TMRM) [3]
NCCN(CCN)/[N+]([O-])=N/O [DETA/NO, Diethylene triamine NONOate] | only a minor response | accumulate NO | strong signal | 
OO [hydrogen peroxide] | strong and quantifiable signal |  | background signal | Hyperpolarization of mitochondrial membrane potential preceded the increase in ROS level
